Experimental data as given in patent US20130060020A1, “Compounds useful for treating neurodegenerative disorders” (Satori Pharmaceuticals, Inc., priority 2011, published 2013).
Like-named read-outs stand apart in the source and are kept apart here.

Assays:
Aβ 42 = assay: % 42 lowering and 40/42 selectivity after dosing in mg/kg (Table 5); format: in vivo
Aβ-42 = Aβ-42 MSD 3-plex ELISA, conditioned media of 2B7 cells; format: cell-based; settings: Homo sapiens, 5 hours treatment
Procedure: (§1) Assays were conducted to determine the ability of a Compound of Formula I to modulate […], and Aβ-38.
(§2) Plates with capture antibodies were blocked for 1-2 hours at room temperature with 150 μL of the manufactures blocking reagent.
(§3) Cultured 2B7 cells in 96 well plate with 250 μL of media per well until confluent;
(§4) Prepared serial dilutions of compounds in DMSO at 100× the final desired concentration;
(§5) Washed wells with 2B7 cells 1× with 250 μL of media;
(§6) Diluted DMSO stocks 1:100 into media: • Added 250 μL of media containing compounds (1% DMSO) to wells with 2B7 cells for 5 hours at 37° C.
(§7) ELISA Sample Prep: • Diluted conditioned media: 1 part media with 1% DMSO and 1 part blocking buffer; • 150 μL of the 250 μL of conditioned media were used.
(§8) Prepared per manufacturer's protocol (see above). • Seven point standard curve samples were prepared that contained Aβ-42, Aβ-40, and Aβ-38. The highest concentration of Aβ-42 and Aβ-38 was 3,000 pg/mL and the highest concentration of Aβ-40 was 10,000 pg/mL. Subsequent serial dilutions were 1:3 and the final composition of each sample was 1 part blocking buffer and 1 part cell medium containing 1% DMSO.
(§9) Overnight Sample Incubation: • Blocked plates are washed 5× with MSD wash buffer with a plate washer; • […] and blocker G reagent in MSD blocking solution was added; • 25 μL of samples (1 part conditioned media containing 1% DMSO and 1 part MSD blocking buffer) were then added; • Plates were incubated overnight at 4 degrees C. or 2 hours at room temperature.
(§10) Final Wash and Readout: • Washed wells 5× with MSD wash buffer; • Added 150 μL 2×MSD read buffer; • Read with MSD imager.
(§11) Aβ peptide levels for each peptide were calculated from the standard curve using the MSD software provided with the MSD 2400 Imager. Percent vehicle values for each compound dosage were then calculated and fit to a 4 parameter curve generating IC50 values.
(§12) Conditioned media from 2B7 cells (Mayo) was collected after 5 hours of treatment and diluted with 1 volume of Meso Scale Discovery (MSD, Gaithersburg Md.) blocking buffer (1% BSA in MSD wash buffer). For total Aβ measurements, standard-bind, multi-array single spot 96 well MSD ELISA plates were coated with unlabeled 4G8 capture antibody (Covance, Princeton, N.J.) overnight at 4° C. and then blocked with 5% BSA in MSD wash buffer for 1 hour at room temperature with orbital shaking Diluted 2B7 conditioned media were added to the blocked in-house total Aβ MSD plates with SULFO-TAG 6E10 antibody (MSD). For Aβ38, 40 and 42 measurements, diluted 2B7 conditioned media were added to blocked human (6E10) Aβ 3-Plex plates (MSD). Total Aβ and Aβ 3-Plex plates were incubated for 2 hours at room temperature with orbital shaking followed by washing and reading according to the manufacturer's instructions (SECTOR® Imager 2400, MSD). Aβ concentrations were converted to percent vehicle values and used to construct dose response curves which were fitted to […] using GraphPad Prism version 5.00 for Windows, GraphPad Software, San Diego Calif. USA.

Aβ-38 = Aβ-38 MSD 3-plex ELISA, conditioned media of 2B7 cells; format: cell-based; settings: Homo sapiens, 5 hours treatment, read-out: Aβ 38 IC50
Procedure: as §1, §2, §3, §4, §5, §6, §7, §8, §9, §10, §11, §12

Aβ-40 = Aβ-40 MSD 3-plex ELISA, conditioned media of 2B7 cells; format: cell-based; settings: Homo sapiens, 5 hours treatment
Procedure: as §1, §2, §3, §4, §5, §6, §7, §8, §9, §10, §11, §12

[1] = inflection of dose response curve, read-out: Aβ 42 DR IC50 Inflection

| SMILES | %42 lowering 10 hr (Aβ 42; 150 mg/kg) | %42 lowering 24 hr (Aβ 42; 100 mg/kg) | %42 lowering 24 hr (Aβ 42; 150 mg/kg) | %42 lowering 10 hr (Aβ 42; 100 mg/kg) | IC50 (Aβ-42; [1]) [nM] | IC50 (Aβ-42; read-out: Aβ 42 IC50) [nM] | IC50 (Aβ-38) [nM] | 40/42 selective 10 hr (Aβ 42; 100 mg/kg) | IC50 (Aβ-40; read-out: Aβ 40 IC50) [nM] | IC50 (Aβ-40; inflection of dose response curve, read-out: Aβ 40 DR IC50 Inflection) [nM] |
| --- | --- | --- | --- | --- | --- | --- | --- | --- | --- | --- |
| CCO[C@@H]([C@H]1C[C@@H](C)[C@H]2[C@H](O1)[C@H](O)[C@@]1(C)[C@@H]3CC[C@H]4C(C)(C)[C@@H](O[C@H]5CN(CC6CN(C)C6)CCO5)CC[C@@]45C[C@@]35CC[C@]21C)C(C)(C)O [Compound I-5] | A (% 42 lowering of under 15%) |  |  |  |  |  |  |  |  |  |
| CCO[C@@H]([C@H]1C[C@@H](C)[C@H]2[C@H](O1)[C@H](O)[C@@]1(C)[C@@H]3CC[C@H]4C(C)(C)[C@@H](O[C@H]5CN(C6CN(C(C)C)C6)CCO5)CC[C@@]45C[C@@]35CC[C@]21C)C(C)(C)O [Compound I-6] | C (% 42 lowering of 21-25%) | E^a (% 42 lowering of greater than 31%) |  |  |  |  |  |  |  |  |
| CCO[C@@H]([C@H]1C[C@@H](C)[C@H]2[C@H](O1)[C@H](O)[C@@]1(C)[C@@H]3CC[C@H]4C(C)(C)[C@@H](O[C@H]5CN(C6CN(C7CCC7)C6)CCO5)CC[C@@]45C[C@@]35CC[C@]21C)C(C)(C)O [Compound I-13] | D (% 42 lowering of 26-30%) |  | D (% 42 lowering of 26-30%) |  |  |  |  |  |  |  |
| CCO[C@@H]([C@H]1C[C@@H](C)[C@H]2[C@H](O1)[C@H](O)[C@@]1(C)[C@@H]3CC[C@H]4C(C)(C)[C@@H](O[C@H]5CN(CC6CN(CCOC)C6)CCO5)CC[C@@]45C[C@@]35CC[C@]21C)C(C)(C)O [Compound I-20] |  |  |  | A^a (% 42 lowering of under 15%) |  |  |  |  |  |  |
| CCO[C@@H]([C@H]1C[C@@H](C)[C@H]2[C@H](O1)[C@H](O)[C@@]1(C)[C@@H]3CC[C@H]4C(C)(C)[C@@H](O[C@H]5CN(CC6CN(CC(C)(C)O)C6)CCO5)CC[C@@]45C[C@@]35CC[C@]21C)C(C)(C)O [Compound I-24] |  | C^a (% 42 lowering of 21-25%) |  | A^a (% 42 lowering of under 15%) |  |  |  |  |  |  |
| CCO[C@@H]([C@H]1C[C@@H](C)[C@H]2[C@H](O1)[C@H](O)[C@@]1(C)[C@@H]3CC[C@H]4C(C)(C)[C@@H](O[C@H]5CN(C6CCN(CCOC)CC6)CCO5)CC[C@@]45C[C@@]35CC[C@]21C)C(C)(C)O [Compound I-28] |  |  |  | A^a (% 42 lowering of under 15%) | 100 to 500 | 100 to 500 | 501 to 1000 | F^a (10-15 fold selectivity) |  |  |
| CCO[C@@H]([C@H]1C[C@@H](C)[C@H]2[C@H](O1)[C@H](O)[C@@]1(C)[C@@H]3CC[C@H]4C(C)(C)[C@@H](O[C@H]5CN(C6CCN(C(C)C)CC6)CCO5)CC[C@@]45C[C@@]35CC[C@]21C)C(C)(C)O [Compound I-30] |  |  |  | A^a (% 42 lowering of under 15%) | < 100 | < 100 | 100 to 500 | G^a (16-20 fold selectivity) | 1000 to 5000 |  |
| CCO[C@@H]([C@H]1C[C@@H](C)[C@H]2[C@H](O1)[C@H](O)[C@@]1(C)[C@@H]3CC[C@H]4C(C)(C)[C@@H](O[C@H]5CN(CC6(O)CN(C)C6)CCO5)CC[C@@]45C[C@@]35CC[C@]21C)C(C)(C)O [Compound I-42] |  |  |  |  | < 100 | < 100 | 100 to 500 |  | 501 to 1000 |  |
| CCO[C@@H]([C@H]1C[C@@H](C)[C@H]2[C@H](O1)[C@H](O)[C@@]1(C)[C@@H]3CC[C@H]4C(C)(C)[C@@H](O[C@H]5CN(CC6(O)CN(C7CCC7)C6)CCO5)CC[C@@]45C[C@@]35CC[C@]21C)C(C)(C)O [Compound I-44] |  |  |  |  | < 100 | < 100 | 100 to 500 |  | 1000 to 5000 |  |
| CCO[C@@H]([C@H]1C[C@@H](C)[C@H]2[C@H](O1)[C@H](O)[C@@]1(C)[C@@H]3CC[C@H]4C(C)(C)[C@@H](O[C@H]5CN(CC6(O)CN(C7COC7)C6)CCO5)CC[C@@]45C[C@@]35CC[C@]21C)C(C)(C)O [Compound I-45] |  |  |  |  | 100 to 500 | 100 to 500 | 100 to 500 |  | 1000 to 5000 |  |
| CCO[C@@H]([C@H]1C[C@@H](C)[C@H]2[C@H](O1)[C@H](O)[C@@]1(C)[C@@H]3CC[C@H]4C(C)(C)[C@@H](O[C@H]5CN(CC6(O)CN(CCOC)C6)CCO5)CC[C@@]45C[C@@]35CC[C@]21C)C(C)(C)O [Compound I-46] |  |  |  |  | < 100 | < 100 | 100 to 500 |  | 501 to 1000 |  |
| CCO[C@@H]([C@H]1C[C@@H](C)[C@H]2[C@H](O1)[C@H](O)[C@@]1(C)[C@@H]3CC[C@H]4C(C)(C)[C@@H](O[C@H]5CN(CC6(O)CN(CC(C)(C)O)C6)CCO5)CC[C@@]45C[C@@]35CC[C@]21C)C(C)(C)O [Compound I-47] |  |  |  |  | 100 to 500 | 100 to 500 | 100 to 500 |  | 1000 to 5000 |  |
| CCO[C@@H]([C@H]1C[C@@H](C)[C@H]2[C@H](O1)[C@H](O)[C@@]1(C)[C@@H]3CC[C@H]4C(C)(C)[C@@H](O[C@H]5CN(CCN(C)C)CCO5)CC[C@@]45C[C@@]35CC[C@]21C)C(C)(C)O [Compound I-59] |  |  |  |  | 100 to 500 | 100 to 500 | 501 to 1000 |  | 1000 to 5000 |  |
| CCO[C@@H]([C@H]1C[C@@H](C)[C@H]2[C@H](O1)[C@H](O)[C@@]1(C)[C@@H]3CC[C@H]4C(C)(C)[C@@H](O[C@H]5CN(CCN6CC(OC)C6)CCO5)CC[C@@]45C[C@@]35CC[C@]21C)C(C)(C)O [Compound I-62] |  |  |  |  | 100 to 500 | 100 to 500 | 501 to 1000 |  | 1000 to 5000 |  |
| CCO[C@@H]([C@H]1C[C@@H](C)[C@H]2[C@H](O1)[C@H](O)[C@@]1(C)[C@@H]3CC[C@H]4C(C)(C)[C@@H](O[C@H]5CN(CCN6CC(F)C6)CCO5)CC[C@@]45C[C@@]35CC[C@]21C)C(C)(C)O [Compound I-63] |  |  |  |  | 100 to 500 | 100 to 500 | 501 to 1000 |  | 1000 to 5000 | 1000 to 5000 |
| CCO[C@@H]([C@H]1C[C@@H](C)[C@H]2[C@H](O1)[C@H](O)[C@@]1(C)[C@@H]3CC[C@H]4C(C)(C)[C@@H](O[C@H]5CN(CC6(O)CN(CCO)C6)CCO5)CC[C@@]45C[C@@]35CC[C@]21C)C(C)(C)O [Compound I-69] |  |  |  |  | < 100 | < 100 | 100 to 500 |  | 501 to 1000 |  |
| CCO[C@@H]([C@H]1C[C@@H](C)[C@H]2[C@H](O1)[C@H](O)[C@@]1(C)[C@@H]3CC[C@H]4C(C)(C)[C@@H](O[C@H]5CN(CC6CN(C(CO)CO)C6)CCO5)CC[C@@]45C[C@@]35CC[C@]21C)C(C)(C)O [Compound I-73] |  |  |  |  | 100 to 500 | 100 to 500 | 100 to 500 |  | 1000 to 5000 |  |
| CCO[C@@H]([C@H]1C[C@@H](C)[C@H]2[C@H](O1)[C@H](O)[C@@]1(C)[C@@H]3CC[C@H]4C(C)(C)[C@@H](O[C@H]5CN(C6CN(C(CO)CO)C6)CCO5)CC[C@@]45C[C@@]35CC[C@]21C)C(C)(C)O [Compound I-74] |  |  |  |  | 100 to 500 | 100 to 500 | 100 to 500 |  | 1000 to 5000 |  |
